Laboratory results published in publication PMC12520410, “A FtsZ inhibitor-acinetobactin conjugate with enhanced cellular uptake in Acinetobacter baumannii acts synergistically in combination with PBP3-targeting antibiotics” (PLOS One, 2025).

Assays:
Type in all cases: binding
[1] = molecular target: T1, AbFtsZ (A. baumannii FtsZ) (Acinetobacter baumannii, UniProt V5V8B6); experiment: fluorescence anisotropy titration of RUP2 with purified AbFtsZ
BauA = BauA (Acinetobacter baumannii, UniProt Q76HJ9); experiment: fluorescence anisotropy titration of the RUP7_2-Fe3+ complex with purified BauA
Chain of BauA (Q76HJ9 entry or part of it): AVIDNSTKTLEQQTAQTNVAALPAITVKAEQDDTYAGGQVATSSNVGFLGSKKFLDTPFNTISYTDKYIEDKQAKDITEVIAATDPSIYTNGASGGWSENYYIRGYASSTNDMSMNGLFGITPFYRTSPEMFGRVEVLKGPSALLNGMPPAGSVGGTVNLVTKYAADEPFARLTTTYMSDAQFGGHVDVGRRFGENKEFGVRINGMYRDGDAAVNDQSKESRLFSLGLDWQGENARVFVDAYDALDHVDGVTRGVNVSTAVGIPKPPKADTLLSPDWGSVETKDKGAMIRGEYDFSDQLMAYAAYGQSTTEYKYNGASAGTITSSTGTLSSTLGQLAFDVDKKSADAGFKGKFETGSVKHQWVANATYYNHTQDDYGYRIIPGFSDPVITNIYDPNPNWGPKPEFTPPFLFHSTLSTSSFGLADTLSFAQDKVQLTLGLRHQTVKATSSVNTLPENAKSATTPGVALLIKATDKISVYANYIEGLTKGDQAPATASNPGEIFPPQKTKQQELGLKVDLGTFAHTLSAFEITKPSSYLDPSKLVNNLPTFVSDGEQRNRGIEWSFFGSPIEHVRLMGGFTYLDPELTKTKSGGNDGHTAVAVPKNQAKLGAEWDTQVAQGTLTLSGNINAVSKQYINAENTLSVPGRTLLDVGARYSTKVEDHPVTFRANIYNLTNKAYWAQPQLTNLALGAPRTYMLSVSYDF

[2] = molecular target: T1, AbFtsZ (A. baumannii FtsZ); experiment: fluorescence anisotropy titration; also inhibits GTP-dependent polymerization (light scattering)

T1 sequence (V5V8B6 entry or part of it): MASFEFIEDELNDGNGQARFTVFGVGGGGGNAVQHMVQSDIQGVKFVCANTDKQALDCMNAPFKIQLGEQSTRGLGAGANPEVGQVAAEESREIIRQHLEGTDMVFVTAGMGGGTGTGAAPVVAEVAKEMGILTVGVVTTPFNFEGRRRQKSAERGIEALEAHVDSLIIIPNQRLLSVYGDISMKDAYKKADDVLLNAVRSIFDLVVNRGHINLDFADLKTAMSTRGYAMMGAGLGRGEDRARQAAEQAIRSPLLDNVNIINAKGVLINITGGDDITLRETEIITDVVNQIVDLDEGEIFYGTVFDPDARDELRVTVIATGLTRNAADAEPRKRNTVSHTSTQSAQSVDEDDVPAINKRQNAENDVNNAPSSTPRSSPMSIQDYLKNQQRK

`NC(=O)c1c(F)ccc(OC(CCO)c2nc(-c3ccc(C(F)(F)F)cc3)c(Br)o2)c1F` (stereo not drawn) [RUP2] gave a Kd [1] of 0.23 ± 0.09 µM.
With `C[C@@H]1ON(CCc2cn(CCC(Oc3ccc(F)c(C(N)=O)c3F)c3nc(-c4ccc(C(F)(F)F)cc4)c(Br)o3)cn2)C(=O)[C@H]1NC(=O)c1cccc(O)c1O` (stereo partly drawn) [RUP7] the Kd (BauA) was 1.8 ± 0.4 µM and the Kd [2] was 26.5 ± 3.7 µM.
